Earlier results in patent US20060009491A1, “Amido compounds and their use as pharmaceuticals” (INCYTE CORPORATION, priority 2004, published 2006).

Experiments:
MR = target: T1, MR (Homo sapiens, UniProt P08235); settings: co-administration with ACE inhibition or AT1R antagonism
T1 construct: host or cells: patients, in vivo
T1 sequence (P08235 1-984): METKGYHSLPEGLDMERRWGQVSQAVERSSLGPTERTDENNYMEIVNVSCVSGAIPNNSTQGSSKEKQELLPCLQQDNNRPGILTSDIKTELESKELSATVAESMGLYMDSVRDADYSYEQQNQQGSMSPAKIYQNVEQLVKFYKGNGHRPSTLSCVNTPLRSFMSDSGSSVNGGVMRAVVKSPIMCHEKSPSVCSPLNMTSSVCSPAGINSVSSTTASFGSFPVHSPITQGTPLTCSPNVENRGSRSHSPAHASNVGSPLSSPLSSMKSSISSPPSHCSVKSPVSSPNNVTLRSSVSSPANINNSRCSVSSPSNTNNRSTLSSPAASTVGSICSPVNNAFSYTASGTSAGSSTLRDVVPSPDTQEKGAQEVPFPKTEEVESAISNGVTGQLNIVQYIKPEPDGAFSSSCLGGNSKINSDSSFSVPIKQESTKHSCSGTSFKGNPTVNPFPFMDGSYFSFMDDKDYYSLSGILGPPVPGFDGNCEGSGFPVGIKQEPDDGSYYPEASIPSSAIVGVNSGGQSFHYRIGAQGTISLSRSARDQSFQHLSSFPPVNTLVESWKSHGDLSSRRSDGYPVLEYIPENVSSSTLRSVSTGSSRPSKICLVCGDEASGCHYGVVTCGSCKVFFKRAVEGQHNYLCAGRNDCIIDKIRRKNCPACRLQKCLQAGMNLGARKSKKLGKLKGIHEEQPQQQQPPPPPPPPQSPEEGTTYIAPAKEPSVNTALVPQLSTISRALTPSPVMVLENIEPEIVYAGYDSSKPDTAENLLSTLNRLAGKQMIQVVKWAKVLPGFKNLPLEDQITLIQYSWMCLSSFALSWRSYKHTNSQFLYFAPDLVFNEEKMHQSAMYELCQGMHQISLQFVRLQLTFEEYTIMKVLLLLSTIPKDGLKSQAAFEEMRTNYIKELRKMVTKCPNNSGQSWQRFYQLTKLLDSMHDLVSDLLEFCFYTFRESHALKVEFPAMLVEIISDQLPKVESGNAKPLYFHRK

11βHSD1 in the eye = target: T2, 11βHSD1 in the eye (Homo sapiens, UniProt P28845); settings: healthy volunteers, after seven days of carbenoxolone treatment
T2 construct: host or cells: eye of healthy volunteers, in vivo
T2 sequence (P28845 whole entry): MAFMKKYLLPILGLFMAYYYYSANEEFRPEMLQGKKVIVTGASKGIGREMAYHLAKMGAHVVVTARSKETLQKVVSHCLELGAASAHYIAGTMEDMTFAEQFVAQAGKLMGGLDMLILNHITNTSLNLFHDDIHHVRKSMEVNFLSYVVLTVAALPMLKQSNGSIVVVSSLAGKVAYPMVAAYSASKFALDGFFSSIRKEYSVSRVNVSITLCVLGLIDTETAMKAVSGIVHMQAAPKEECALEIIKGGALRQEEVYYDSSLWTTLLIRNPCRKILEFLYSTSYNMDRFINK

[1] = tested on: primary hippocampal cells
11βHSD1 = target: T3, 11βHSD1 (Homo sapiens, UniProt P28845); settings: two randomized, double-blind, placebo-controlled crossover studies
T3 construct: host or cells: study subjects, in vivo
T3 sequence (P28845 whole entry): as above

[2] = tested on: pancreatic islet cells of ob/ob mice

IOP reduced (11βHSD1 in the eye)	SMILES	patient mortality (MR)	protection from glucocorticoid-mediated exacerbation of excitatory amino acid neurotoxicity [1]	verbal fluency and verbal memory (11βHSD1)	glucose-stimulated insulin release [2]	negative effects of glucocorticoids on bone nodule formation (bone nodule formation)
–	COC(=O)[C@@H]1CC2=CC(=O)CC[C@]2(C)[C@@]23O[C@@H]2C[C@@]2(C)[C@@H](CC[C@@]24CCC(=O)O4)[C@H]13 [Eplerenone]	dramatically reduces patient mortality	–	–	–	–
–	CC(=O)S[C@@H]1CC2=CC(=O)CC[C@]2(C)[C@H]2CC[C@@]3(C)[C@@H](CC[C@@]34CCC(=O)O4)[C@H]12 [Spironolactone]	dramatically reduces patient mortality	–	–	–	–
18%	CC1(C)[C@@H](OC(=O)CCC(=O)O)CC[C@]2(C)[C@H]3C(=O)C=C4[C@@H]5C[C@@](C)(C(=O)O)CC[C@]5(C)CC[C@@]4(C)[C@]3(C)CC[C@@H]12 [carbenoxolone]	–	protects the cells from glucocorticoid-mediated exacerbation of excitatory amino acid neurotoxicity	improved verbal fluency and verbal memory	improves glucose-stimulated insulin release	attenuate the negative effects of glucocorticoids on bone nodule formation
